Data on 18 compounds can be found in patent US20220306640A1, “HYDANTOIN DERIVATIVE” (ONO PHARMACEUTICAL CO., LTD., priority 2019, published 2022).

Counter-ions that a name gives are not always drawn.

Experiment [1] deals with T1, DDR1 (Homo sapiens, UniProt Q08345).
T1 construct: purchased Invitrogen
In words: Measurement of DDR1 inhibitory activity (LanthaScreen system, in vitro test). Conditions: GST-DDR1, Kinase tracer 178. It counts as binding. Here is the method: Biological Experiment Example 1: Measurement of an DDR1 Inhibitory Activity (In Vitro Test)
An DDR1 enzyme inhibitory activity was measured by using LanthaScreen (registered trademark) system (Invitrogen) based on the attached instruction. The reagents used are shown below.
Assay buffer: 5× Kinase buffer A (Invitrogen) was diluted 5-fold with ddH2O.
1× Kinase Buffer A: 50 mmol/L HEPES pH 7.5, 10 mmol/L MgCl2, 1 mmol/L EGTA, 0.01% Brij-35.
2×DDR1 Solution: a solution containing […] GST-DDR1 (Invitrogen) was prepared by using Assay buffer.
2× Tracer/antibody solution: a solution containing 20 nmol/L Kinase tracer 178 (Invitorgen) and […] Eu-Anti-GST Antibody (Invitorogen) was prepared by using Assay buffer. Test compound solution: a solution containing a test compound of 2-fold concentration with respect to the final concentration was prepared by 50-fold diluting a DMSO solution of test compound of each concentration with the Assay buffer.
• 1 Add 5 μL 2×DDR1 Solution to proxiplate (PerkinElmer) • 2 Add 5 μL test compound solution to proxiplate • 3 Incubate for 15 min at RT • 4 Add 5 μL 2× Tracer/Antibody solution to all well Incubate 1 h at RT • 6 Read LANCE Eu on Envision (PerkinElmer) (Ex: 320 nm/Em 665 nm & 615 nm)
In the low control group, 5 μL Assay buffer was added instead of 5 μL 2×DDR1 Solution and the final 1% DMSO solution was added instead of test compound solution.
In the high control group, the final 1% DMSO solution was added instead of test compound solution.
(§1) The inhibition rate (%) in the test compound group was calculated based on the following mathematical formula.
% inhibition=100−100*(assay value of test compound−A)/(B−A) [Math. 1]
A: average value of low control group B: average value of high control group
Values of 50% inhibition rate (IC50 values) of the test compound were calculated from the inhibition curve based on the inhibition rate of the test compounds in each concentration.
For orientation: Time-resolved FRET reads energy transfer from a long-lived donor to a nearby acceptor.

In experiment [2] the target is T2, DDR1 phosphorylation in T-47D (ATCC, HTB-133) cells (Homo sapiens, UniProt Q08345).
T2 construct: host or cells: T-47D
T2 sequence (Q08345 19-913): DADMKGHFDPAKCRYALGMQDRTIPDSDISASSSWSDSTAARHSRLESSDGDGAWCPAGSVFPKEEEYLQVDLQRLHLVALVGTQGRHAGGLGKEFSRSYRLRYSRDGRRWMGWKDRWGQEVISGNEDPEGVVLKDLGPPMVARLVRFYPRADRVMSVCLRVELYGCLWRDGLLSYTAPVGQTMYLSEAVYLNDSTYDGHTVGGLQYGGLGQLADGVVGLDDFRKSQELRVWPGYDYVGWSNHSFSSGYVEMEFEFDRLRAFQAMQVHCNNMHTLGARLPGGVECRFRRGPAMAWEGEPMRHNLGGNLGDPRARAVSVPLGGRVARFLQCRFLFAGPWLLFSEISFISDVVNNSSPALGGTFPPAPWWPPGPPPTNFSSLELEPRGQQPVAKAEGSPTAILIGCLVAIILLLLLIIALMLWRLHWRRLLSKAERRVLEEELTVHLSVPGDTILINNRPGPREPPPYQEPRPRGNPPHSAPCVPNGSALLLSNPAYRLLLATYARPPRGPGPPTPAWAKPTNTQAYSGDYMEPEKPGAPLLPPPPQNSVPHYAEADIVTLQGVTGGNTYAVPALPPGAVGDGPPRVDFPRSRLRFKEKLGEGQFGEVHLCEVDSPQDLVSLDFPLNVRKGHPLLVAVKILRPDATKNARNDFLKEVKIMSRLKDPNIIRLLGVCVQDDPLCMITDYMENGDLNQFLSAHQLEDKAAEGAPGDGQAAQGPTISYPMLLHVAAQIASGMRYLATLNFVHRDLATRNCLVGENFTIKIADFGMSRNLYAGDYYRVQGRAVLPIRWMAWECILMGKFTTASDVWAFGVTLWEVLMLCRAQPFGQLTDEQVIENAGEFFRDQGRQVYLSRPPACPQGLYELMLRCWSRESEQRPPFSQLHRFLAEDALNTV
In words: Measurement of DDR1 phosphorylation suppression rate by using T-47D cells (p-DDR1 ELISA). The class given is cell-based. The conditions noted are these: collagen Type I 10 μg/ml, p-DDR1 (panTyr) ELISA. Here is the method:
Biological Example 2: Measurement of DDR1 Phosphorylation Suppression Rate by Using T-47D (ATCC, HTB-133) cells
T-47D cells should be in culture for at least 7 days before using in the assay.
Cell culture medium: RPMI 1640 (HyClone) containing 10% Heat-FBS (HyClone) was prepared.
Assay medium: RPMI 1640 containing 0.1% BSA (solarbio) was prepared.
Collagen Type I (rat tail) solution: Assay medium containing 200 μg/mL Collagen I, rat tail (Gibco) was prepared.
Cell lysis buffer: a solution containing IX cell lysis buffer (CST) and 1× protease and phosphatase inhibitor cocktail (Thermofisher) was prepared by using ddH2O.
• 1. Collect cells into tubes and centrifuge at 1200 rpm for 5 min, at room temperature. Re-suspend the cells in cell culture medium pre-warmed to room temperature. • 2. Count cells and suspend at a density of 2×10^5/ml of cell culture medium. Plate the cells at 100 μL per well (Corning 3599 96-well plate, 2×10^4 cells per well final), mixing the cells well between each draw of the pipettor. • 3. Put lid on cell plate and place into the incubator at 37° C., 5% CO2 • 4. Culture cell overnight
• 1. Remove the plate from the incubator • 2. Cell medium is replaced with the 90 μL Assay medium.
• 1. Compound plates are pre-titrated using DMSO (10-fold dilution for 6 points) • 2. Dilute test compound using assay medium; Transfer 1 μL compound to other 96 well plate and then add 49 μL assay medium to each well (50 fold dilution). • 3. Add 5 μL the diluted test compound solution to the appropriate wells by pipettor. Compound final concentration is start from […] and DMSO final concentration is 0.1 • 4. Tap the plates gently to mix in compound. Reseal the plate with a lid and place in the incubator again, for 24 h.
• 1. Diluted collagen Type I in assay medium to the 200 μg/ml concentration • 2. Using the pipettor adds 5 μL of 200 μg/mL collagen Type I solution to the cell plate (compound well and High control well, collagen final conc. is 10 μg/ml). Add assay medium buffer to the control wells (low control well) • 3. Reseal the plate with a lid and place in the incubator. Incubate 24 h for collagen type I
• 1. After incubation, add 100 µL per well Cell lysis buffer. • 2. Incubate 30 min on ice, then freezing to −80° C. to get the fully cell lysates. • 3. Transfer cell lysates to new plate • 4. Centrifuge for 30 min (×4000 rpm) at 4° C. Then transfer the supernatant to a new plate.
p-DDR1 (panTyr) ELISA kit (CST) was used in the study. The measurement was carried out according to the attached instruction.
as §1
% inhibition=100−100*(assay value of test compound−A)/(B−A) [Math. 2]
A: average value of low control group B: average value of high control group Values of 50% inhibition rate (IC50 values) of the test compound were calculated from the inhibition curve based on the inhibition rate of the test compounds in each concentration.
(An ELISA detects its analyte on a solid surface through an enzyme-linked reagent.)

T1 sequence (Q08345 19-913): as above

As for `O=C1CN(c2cncc(C(F)(F)F)c2)C(=O)N1[C@H]1CC[C@H](Oc2ncnc3[nH]ccc23)CC1` (stereo in doubt) [Example 3(17), 3-[trans-4-(7H-pyrrolo[2,3-d]pyrimidin-4-yloxy)cyclohexyl]-1-[5-(trifluoromethyl)-3-pyridinyl]-2,4-imidazolidinedione], the IC50 (in general, the concentration needed to halve the response being measured) in experiment [1] was 5 nM; in experiment [2], 9 nM.

For `CS(=O)(=O)c1cc(N2CC(=O)N(c3ccc(Oc4cnc5[nH]ncc5c4)cc3)C2=O)cc(C(F)(F)F)c1` [Example 1(28), 1-[3-(methylsulfonyl)-5-(trifluoromethyl)phenyl]-3-[4-(1H-pyrazolo[3,4-b]pyridin-5-yloxy)phenyl]-2,4-imidazolidinedione], the IC50 in experiment [1] and in experiment [2] was 2 nM in each case. With `Nc1ncc(Oc2ccc(N3C(=O)CN(c4cncc(C(F)(F)F)c4)C3=O)cc2)cn1` [Example 1, 3-{4-[(2-amino-5-primidinyl)oxy]phenyl}-1-[5-(trifluoromethyl)-3-pyridinyl]-2,4-imidazolidinedione], the IC50 in experiment [1] was 3 nM; in experiment [2], 2 nM. For `COc1cc2nccc(Oc3ccc(N4C(=O)CN(c5cncc(C(F)(F)F)c5)C4=O)cc3C3CN(C(=O)OC(C)(C)C)C3)c2cc1OC` [Example 2(2), 2-methyl-2-propanyl 3-(2-[(6,7-dimethoxy-4-quinolinyl)oxy]-5-{2,5-dioxo-3-[5-(trifluoromethyl)-3-pyridinyl]-1-imidazolidinyl}phenyl)-1-azetidinecarboxylate], in that order: 200 nM and 50 nM. In the case of `CC(C)c1cc(N2C(=O)CN(c3cc(C(F)(F)F)cn(C)c3=O)C2=O)ccc1Oc1ccnc2cc(OCCCS(C)(=O)=O)ccc12` [Example 2(6), 3-[3-isopropyl-4-({7-[3-(methylsulfonyl)propoxy]-4-quinolinyl}oxy)phenyl]-1-[1-methyl-2-oxo-5-(trifluoromethyl)-1,2-dihydro-3-pyridinyl]-2,4-imidazolidinedione], the IC50 worked out at 10 nM in experiment [1] and 6 nM in experiment [2]. For `COc1ccc2c(O[C@H]3CC[C@H](N4C(=O)CN(c5cncc(C(F)(F)F)c5)C4=O)CC3)ncnc2c1` [Example 2(19), 3-{trans-4-[(7-methoxy-4-quinazolinyl)oxy]cyclohexyl}-1-[5-(trifluoromethyl)-3-pyridinyl]-2,4-imidazolidinedione], in that order: 3 nM and 1 nM. Take `Nc1nccc(Nc2ccc(N3C(=O)CN(c4cccc(OC(F)(F)F)c4)C3=O)cc2Br)c1N` [Example 2(163), 3-{3-bromo-4-[(2,3-diamino-4-pyridinyl)amino]phenyl}-1-[3-(trifluoromethoxy)phenyl]-2,4-imidazolidinedione]: it took 6 nM to reach half-maximal inhibition in experiment [2] (IC50). In other words, the single-digit nanomolar range. Turning to `CCc1cc(N2C(=O)N(c3cncc(C(F)(F)F)c3)CC2O)ccc1Oc1ccnc2[nH]c(=O)cnc12` (stereo not drawn) [Example 5(46), 8-(2-ethyl-4-{5-hydroxy-2-oxo-3-[5-(trifluoromethyl)-3-pyridinyl]-1-imidazolidinyl}phenoxy)pyrido[2,3-b]pyrazin-3(4H)-one], inhibition in experiment [1] was half-maximal at 2 nM (IC50). The same measure, in the same setting: to `C=Cc1cc(N2C(=O)CN(c3cncc(C(F)(F)F)c3)C2=O)ccc1N1CCCc2cnccc21` [Example 8(1), 3-[4-(3,4-dihydro-1,6-naphthyridin-1(2H)-yl)-3-vinylphenyl]-1-[5-(trifluoromethyl)-3-pyridinyl]-2,4-imidazolidinedione] belongs 80 nM. In experiment [2], `O=C1CN(c2cncc(C(F)(F)F)c2)C(=O)N1c1ccc(N2CCCc3cnccc32)c(Br)c1` [Example 8, 3-[3-bromo-4-(3,4-dihydro-1,6-naphthyridin-1(2H)-yl)phenyl]-1-[5-(trifluoromethyl)-3-pyridinyl]-2,4-imidazolidinedione] came in with an IC50 of 70 nM.

The compound `CC(c1ccnc2[nH]ccc12)N1CCC(N2C(=O)CN(c3cncc(C(F)(F)F)c3)C2=O)CC1` (stereo not drawn) [Example 10(1), 3-{1-[1-(1H-pyrrolo[2,3-b]pyridin-4-yl)ethyl]-4-piperidinyl}-1-[5-(trifluoromethyl)-3-pyridinyl]-2,4-imidazolidinedione] displayed an IC50 in experiment [2] of 10 nM. For `COc1ccc2c(CN3CCC(N4C(=O)CN(c5cncc(C(F)(F)F)c5)C4=O)CC3)ccnc2c1` [Example 10, 3-{1-[(7-methoxy-4-quinolinyl)methyl]-4-piperidinyl}-1-[5-(trifluoromethyl)-3-pyridinyl]-2,4-imidazolidinedione], the IC50 in experiment [1] came to 60 nM.

In the case of `O=C1CN(c2cncc(C(F)(F)F)c2)C(=O)N1[C@H]1CC[C@H](Oc2cnc3[nH]nc(OCCO)c3c2)CC1` [Example 36(7), 3-(trans-4-{[3-(2-hydroxyethoxy)-1H-pyrazolo[3,4-b]pyridin-5-yl]oxy}cyclohexyl)-1-[5-(trifluoromethyl)-3-pyridinyl]-2,4-imidazolidinedione], inhibition in experiment [2] was half-maximal at 0.1 nM (IC50). Still for that read-out and setting: under `CC(C)(O)c1cc2c(OC34CCC(N5C(=O)CN(c6cncc(C(F)(F)F)c6)C5=O)(CC3)C4)ncnc2[nH]1` [Example 39, 3-(4-{[6-(2-hydroxy-2-propanyl)-7H-pyrrolo[2,3-d]pyrimidin-4-yl]oxy}bicyclo[2.2.1]hept-1-yl)-1-[5-(trifluoromethyl)-3-pyridinyl]-2,4-imidazolidinedione trifluoroacetate (1:1)] stands 10 nM; under `O=C1CN(c2cncc(C(F)(F)F)c2)C(=O)N1C12CCC(Oc3ncnc4[nH]cc(Cl)c34)(CC1)C2` [Example 42(2), 3-{4-[(5-chloro-7H-pyrrolo[2,3-d]pyrimidin-4-yl)oxy]bicyclo[2.2.1]hept-1-yl}-1-[5-(trifluoromethyl)-3-pyridinyl]-2,4-imidazolidinedione], 20 nM.

Compound `N#Cc1cncc(N2CC(=O)N(C34CCC(Oc5ncnc6[nH]ccc56)(CC3)C4)C2=O)c1` [Example 42(7), 5-{2,4-dioxo-3-[4-(7H-pyrrolo[2,3-d]pyrimidin-4-yloxy)bicyclo[2.2.1]hept-1-yl]-1-imidazolidinyl}nicotinonitrile] showed an IC50 in experiment [2] of 200 nM. As to `N#Cc1cccc(N2CC(=O)N(C34CCC(Oc5ncnc6[nH]ccc56)(CC3)C4)C2=O)c1` [Example 42(9), 3-{2,4-dioxo-3-[4-(7H-pyrrolo[2,3-d]pyrimidin-4-yloxy)bicyclo[2.2.1]hept-1-yl]-1-imidazolidinyl}benzonitrile], the IC50 in experiment [2] was 20 nM. On the same count and under the same terms, to `O=C1CN(c2cncc(C(F)(F)F)c2)C(=O)N1C12CCC(Oc3ccnc4[nH]ncc34)(CC1)C2` [Example 43, 3-[4-(1H-pyrazolo[3,4-b]pyridin-4-yloxy)bicyclo[2.2.1]hept-1-yl]-1-[5-(trifluoromethyl)-3-pyridinyl]-2,4-imidazolidinedione] belongs 6 nM.
